Here are results for 29 molecules from patent publication US20250388565A1, “ESTROGEN RECEPTOR ALPHA DEGRADERS AND METHODS OF USE THEREOF” (Relay Therapeutics, Inc., priority 2022, published 2025).

This assay has as its target T1, ERα protein (HiBiT-tagged) in ESR1_HiBiT KI MCF7 cells (Homo sapiens, UniProt P03372).
T1 sequence (P03372 1-595): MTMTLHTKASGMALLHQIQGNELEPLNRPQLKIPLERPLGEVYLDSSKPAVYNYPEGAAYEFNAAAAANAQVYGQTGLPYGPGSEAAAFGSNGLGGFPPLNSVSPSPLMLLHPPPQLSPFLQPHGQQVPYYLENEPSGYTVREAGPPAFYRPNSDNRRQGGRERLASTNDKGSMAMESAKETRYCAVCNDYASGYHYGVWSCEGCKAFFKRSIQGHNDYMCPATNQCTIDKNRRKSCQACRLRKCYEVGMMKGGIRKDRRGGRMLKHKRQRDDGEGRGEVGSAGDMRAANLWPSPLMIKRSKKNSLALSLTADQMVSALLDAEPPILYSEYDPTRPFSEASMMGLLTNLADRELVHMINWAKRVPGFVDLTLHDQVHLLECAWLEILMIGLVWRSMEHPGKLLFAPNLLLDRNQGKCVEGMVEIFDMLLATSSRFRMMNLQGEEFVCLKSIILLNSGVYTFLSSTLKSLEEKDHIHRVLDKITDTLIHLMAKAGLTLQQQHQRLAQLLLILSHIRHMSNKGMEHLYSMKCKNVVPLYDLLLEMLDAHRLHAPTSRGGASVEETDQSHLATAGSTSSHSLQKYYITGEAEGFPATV
Put plainly: Nano Glo HiBiT Lytic Degradation Assay. Format: cell-based. The following applies: 6 hours with compound, 14-point dose response 1:3, bell-shape curve fit, half-maximal effect of first Hill model, read-out: MCF7 ESR1 HiBiT - (DC50). The procedure:
Selected compounds of the present disclosure were tested in a Nano Glo HiBiT Lytic Degradation Assay to measure the level of ERα protein degradation in MCF7 cells.
Cell culture: ESR1_HiBiT KI MCF7 cells were maintained in growth media without antibiotics. Cells were maintained in exponential growth phase, between 40% and 90% confluency.
Cell seeding: Cells were counted using a Vi-Cell and seeded in a 384-well flat-bottom microplate (cell culture-treated) at 4000 cells/well in 25 μL of growth medium using a BioTek MultiFlo Multimode Dispenser. Plates were incubated for 24 h at 37° C., 5% CO2, >95% relative humidity.
Compound preparation: Compounds were screened as 14-point dose response curves 1:3 dilutions. DMSO is used as the vehicle control and all wells were normalized to the same final DMSO concentration (0.1% v/v). Compounds were dosed using an Echo Acoustic Liquid Handler, 25 nL of 1000× (10 mM top concentration) DMSO stock/well. Cells were incubated with compounds for 6 hours at 37° C., 5% CO2, >95% relative humidity. Each compound was run in duplicate.
Nano Glo HiBiT Lytic Degradation Assay: HiBiT-tagged ERα protein levels were quantified using a Nano Glo HiBiT Lytic Degradation Assay following the manufacturer's protocol. Briefly, the Nano-Glo® HiBiT Lytic Reagent was prepared by diluting the LgBiT Protein reagent (1:100) and the Nano-Glo® HiBiT Lytic Substrate (1:50) into Nano-Glo® HiBiT Lytic Buffer at room temperature. The 384-well microplate were equilibrated to room temperature and 25 μL of Nano-Glo® HiBiT Lytic Reagent was added to each well. Samples were mixed by placing the 384-well microplate on an orbital shaker for 10 minutes. Luminescence was measured using an EnVision 2105 Multimode Plate Reader.
Data processing and analysis: Background signal (wells containing growth medium without cells) was subtracted from individual relative light units (RLU) values and the resulting values were normalized to the DMSO control well values. Dose responses were analyzed with Genedata Screener® using a bell-shape curve fit and the concentrations corresponding to the half-maximal effect of the first Hill model were used as DC50 values.

As usually defined, the DC50 is the midpoint of the concentration-degradation curve. As to `O=C1CC[C@H](N2Cc3cc(N4CCN(CC5CCN(c6ccc([C@H]7c8ccc(O)cc8CC[C@@]78CCc7ccccc78)cc6)CC5)CC4)ccc3C2=O)C(=O)N1` (relative stereo) [Compound I-261, (S)-3-(5-(4-((1-(4-((1S*,1′R*)-6′-hydroxy-2,3,3′,4′-tetrahydro-1′H-spirofindene-1,2′-naphthalen]-1′-yl)phenyl)piperidin-4-yl)methyl)piperazin-1-yl)-1-oxoisoindolin-2-yl)piperidine-2,6-dione], the DC50 came to 19 nM.

Consider `O=C1CC[C@H](N2Cc3cc(N4CCN(CC5CCN(c6ccc([C@H]7c8ccc(C(=O)O)cc8CC[C@H]7c7ccccc7)cc6)CC5)CC4)ccc3C2=O)C(=O)N1` (single isomer, unassigned) [Compound I-1], for which the DC50 came out at 3 nM. For `O=C1CC[C@H](N2Cc3cc(N4CCN(CC5CCN(c6ccc([C@@H]7c8ccc(C(=O)O)cc8CC[C@@H]7c7ccccc7)cc6)CC5)CC4)ccc3C2=O)C(=O)N1` (single isomer, unassigned) [Compound I-2], the DC50 was no less than 10000 nM. For `O=C1CCC(c2ccc(N3CCN(CCC4CCN(c5ccc([C@@H]6c7ccc(O)cc7CC[C@@H]6c6ccccc6)cc5)CC4)CC3)cc2)C(=O)N1` (single isomer, unassigned) [Compound I-8] the value was no less than 10000 nM; for `Cn1nccc1[C@H]1CCc2cc(O)ccc2[C@H]1c1ccc(N2CCC(CN3CCN(c4ccc5c(c4)CN([C@H]4CCC(=O)NC4=O)C5=O)CC3)CC2)cc1` (single isomer, unassigned) [Compound I-24], no less than 10000 nM. As for `Cn1nccc1[C@@H]1CCc2cc(O)ccc2[C@@H]1c1ccc(N2CCC(CN3CCN(c4ccc5c(c4)CN([C@H]4CCC(=O)NC4=O)C5=O)CC3)CC2)cc1` (single isomer, unassigned) [Compound I-25], the figure is 0.02 nM; as for `Cn1ccc([C@H]2CCc3cc(O)ccc3[C@H]2c2ccc(N3CCC(CN4CCN(c5ccc6c(c5)CN([C@H]5CCC(=O)NC5=O)C6=O)CC4)CC3)cc2)n1` (single isomer, unassigned) [Compound I-28], no less than 10000 nM. As for `Cn1ccc([C@@H]2CCc3cc(O)ccc3[C@@H]2c2ccc(N3CCC(CN4CCN(c5ccc6c(c5)CN([C@H]5CCC(=O)NC5=O)C6=O)CC4)CC3)cc2)n1` (single isomer, unassigned) [Compound I-29], the figure is 0.14 nM; as for `O=C1CC[C@H](N2Cc3cc(N4CCN(CC5CCN(c6ccc([C@@H]7c8ccc(O)cc8CO[C@@H]7c7ccc(C(F)(F)F)cc7)cc6)CC5)CC4)ccc3C2=O)C(=O)N1` (single isomer, unassigned) [Compound I-36], 80 nM; as for `O=C1CCC(c2ccc(N3CCN(C4CCN(c5ccc([C@@H]6c7ccc(O)cc7CC[C@@H]6c6ccccc6)cc5)CC4)CC3)cc2)C(=O)N1` (single isomer, unassigned) [Compound I-40], 370 nM. For `O=C1CCC(c2ccc(N3CCN(C4CCN(c5ccc([C@H]6c7ccc(O)cc7CC[C@H]6c6ccccc6)cc5)CC4)CC3)cc2)C(=O)N1` (single isomer, unassigned) [Compound I-41], the DC50 came out at 370 nM.

Regarding `O=C1CCC(c2ccc(N3CCN(CCC4CCN(c5ccc([C@H]6c7ccc(O)cc7CC[C@H]6c6ccccc6)cc5)CC4)CC3)cc2)C(=O)N1` (single isomer, unassigned) [Compound I-42], the half-maximal degradation concentration (DC50) is no less than 10000 nM. On to `O=C1CC[C@H](N2Cc3cc(N4CCN(CC5CCN(c6ccc([C@H]7c8ccc9[nH]ncc9c8CC[C@H]7c7ccccc7)cc6)CC5)CC4)ccc3C2=O)C(=O)N1` (single isomer, unassigned) [Compound I-44], for which the DC50 amounted to 7 nM. For `O=C1CC[C@@H](N2Cc3cc(N4CCC(CN5CCC(n6cc([C@@H]7c8ccc(O)cc8CC[C@@H]7c7ccccc7)cn6)CC5)CC4)ccc3C2=O)C(=O)N1` (single isomer, unassigned) [Compound I-48], the DC50 is no less than 10000 nM.

For the molecule `O=C1CCC(N2Cc3cc(N4CCN(CC5CCN(c6ccc([C@@H]7c8ccc(O)cc8CC[C@@H]7C7CCCC7)cc6)CC5)CC4)ccc3C2=O)C(=O)N1` (single isomer, unassigned) [Compound I-52], the DC50 was found to be 9 nM. As to `O=C1CCC(N2Cc3cc(N4CCN(CC5CCN(c6ccc([C@H]7c8ccc(O)cc8CC[C@H]7C7CCCC7)cc6)CC5)CC4)ccc3C2=O)C(=O)N1` (single isomer, unassigned) [Compound I-53], the DC50 turned out to be 0.92 nM. As for `O=C1CCC(N2Cc3cc(N4CCN(CC5CCN(c6ccc([C@@H]7c8ccc(O)cc8CC[C@@H]7C7CCC(F)(F)CC7)cc6)CC5)CC4)ccc3C2=O)C(=O)N1` (single isomer, unassigned) [Compound I-54], the figure is 742 nM. For the molecule `O=C1CC[C@H](N2Cc3cc(N4CCN(CC5CCN(c6ccc([C@H]7c8ccc(O)cc8CC[C@H]7C7CCC(F)(F)CC7)cc6)CC5)CC4)ccc3C2=O)C(=O)N1` (single isomer, unassigned) [Compound I-55], the half-maximal degradation concentration (DC50) was 0.41 nM.

For `O=C1CC[C@H](N2Cc3cc(N4CCN(CC5CCN(c6ccc([C@H]7c8ccc(O)cc8CO[C@H]7c7ccc(C(F)(F)F)cc7)cc6)CC5)CC4)ccc3C2=O)C(=O)N1` (single isomer, unassigned) [Compound I-56], the DC50 was 7.75 nM.

Consider `O=C1CC[C@H](N2Cc3cc(N4CCN(CC5CCN(c6ccc([C@@H]7c8ccc(O)cc8CC[C@@H]7c7ccc8c(c7)CC8)cc6)CC5)CC4)ccc3C2=O)C(=O)N1` (single isomer, unassigned) [Compound I-57], for which the DC50 was determined as 7 nM.

On to `O=C1CC[C@H](N2Cc3cc(N4CCN(CC5CCN(c6ccc([C@H]7c8ccc(O)cc8CC[C@H]7c7ccc8c(c7)CC8)cc6)CC5)CC4)ccc3C2=O)C(=O)N1` (single isomer, unassigned) [Compound I-58], for which the half-maximal degradation concentration (DC50) turned out to be 0.048 nM. For the molecule `O=C1CC[C@H](N2Cc3cc(N4CCN(CC5CCN(c6ccc([C@@H]7c8ccc(O)cc8CC[C@@H]7c7ccc8c(c7)CCCC8)cc6)CC5)CC4)ccc3C2=O)C(=O)N1` (single isomer, unassigned) [Compound I-59], the DC50 was 906 nM. In the case of `O=C1CC[C@H](N2Cc3cc(N4CCN(CC5CCN(c6ccc([C@H]7c8ccc(O)cc8CC[C@H]7c7ccc8c(c7)CCCC8)cc6)CC5)CC4)ccc3C2=O)C(=O)N1` (single isomer, unassigned) [Compound I-60], the DC50 came to 1 nM. On to `O=C1CC[C@H](N2Cc3cc(N4CCN(CC5CCN(c6ccc([C@H]7c8ccc(O)cc8CC[C@H]7c7cccc8c7CCCC8)cc6)CC5)CC4)ccc3C2=O)C(=O)N1` (single isomer, unassigned) [Compound I-61], for which the 50% degradation concentration (DC50) is no less than 10000 nM.

In the case of `O=C1CC[C@H](N2Cc3cc(N4CCN(CC5CCN(c6ccc([C@@H]7c8ccc(O)cc8CC[C@@H]7c7cccc8c7CCCC8)cc6)CC5)CC4)ccc3C2=O)C(=O)N1` (single isomer, unassigned) [Compound I-62], the DC50 was found to be 2 nM.

Consider `O=C1CCC(N2Cc3cc(N4CCN(CC5CCN(c6ccc([C@@H]7c8ccc(O)cc8CC[C@@H]7c7cccc8c7CC8)cc6)CC5)CC4)ccc3C2=O)C(=O)N1` (single isomer, unassigned) [Compound I-100], for which the half-maximal degradation concentration (DC50) came out at 0.33 nM. For `O=C1CCC(N2Cc3cc(N4CCN(CC5CCN(c6ccc([C@H]7c8ccc(O)cc8CC[C@H]7c7cccc8c7CC8)cc6)CC5)CC4)ccc3C2=O)C(=O)N1` (single isomer, unassigned) [Compound I-101] the value was 8 nM. As for `O=C1CC[C@H](N2Cc3cc(N4CCN(CC5CCN(c6ccc([C@H]7CCCc8cc(O)ccc87)cc6)CC5)CC4)ccc3C2=O)C(=O)N1` (single isomer, unassigned) [Compound I-102], the DC50 is no less than 10000 nM. For `O=C1CC[C@H](N2Cc3cc(N4CCN(CC5CCN(c6ccc([C@@H]7CCCc8cc(O)ccc87)cc6)CC5)CC4)ccc3C2=O)C(=O)N1` (single isomer, unassigned) [Compound I-103] the value was no less than 10000 nM.
